How the values were obtained:
Type in all cases: cell-based
adenosine A2a receptor = target: T1, adenosine A2a receptor (Homo sapiens, UniProt P29274); assay: Indirect determination of adenosine agonism by gene expression (luciferase reporter), A2a cells; conditions: CHO cells stably transfected with A2a receptor cDNA; 50% of maximum stimulation
T1 construct: expressed in transfected cells; host or cells: CHO (Chinese Hamster Ovary)
From the text: (§1) Cells of the CHO (Chinese Hamster Ovary) permanent cell line are transfected stably with the cDNA for the adenosine receptor subtypes A1, A2a and A2b. The adenosine A1 receptors are coupled to the adenylate cyclase by way of Gi proteins, while the adenosine A2a and A2b receptors are coupled by way of Gs proteins. In correspondence with this, the formation of cAMP in the cell is inhibited or stimulated, respectively. After that, expression of the luciferase is modulated by way of a cAMP-dependent promoter. The luciferase test is optimized, with the aim of high sensitivity and reproducibility, low variance and good suitability for implementation on a robot system, by varying several test parameters, such as cell density, duration of the growth phase and the test incubation, forskolin concentration and medium composition. The following test protocol is used for pharmacologically characterizing cells and for the robot-assisted substance screening:
(§2) The stock cultures are grown, at 37° C. and under 5% CO2, in DMEM/F12 medium containing 10% FCS (fetal calf serum) and in each case split 1:10 after 2-3 days. The test cultures are seeded in 384-well plates with 2000 cells per well and grown at 37° C. for approx. 48 hours. The medium is then replaced with a physiological sodium chloride solution (130 mM sodium chloride, 5 mM potassium chloride, 2 mM calcium chloride, 20 mM HEPES, 1 mM magnesium chloride hexahydrate, 5 mM sodium bicarbonate, pH 7.4). The substances to be tested, which are dissolved in DMSO, are pipetted into the test cultures (maximum final concentration of DMSO in the test mixture: 0.5%) in a dilution series of from 5×10^−11M to 3×10^−6M (final concentration). 10 minutes later, forskolin is added to the A1 cells and all the cultures are subsequently incubated at 37° C. for four hours. After that, 35 μl of a solution which is composed of 50% lysis reagent (30 mM disodium hydrogenphosphate, 10% glycerol, 3% TritonX100, 25 mM TrisHCl, 2 mM dithiotreitol (DTT), pH 7.8) and 50% luciferase substrate solution (2.5 mM ATP, 0.5 mM luciferin, 0.1 mM coenzyme A, 10 mM tricine, 1.35 mM magnesium sulfate, 15 mM DTT, pH 7.8) are added to the test cultures, which are shaken for approx. 1 minute and the luciferase activity is measured using a camera system. The EC50 values are determined, i.e., the concentrations at which 50% of the luciferase answer is inhibited in the case of the A1 cell, and, respectively, 50% of the maximum stimulation with the corresponding substance is achieved in the case of the A2b and A2a cells. […] Pharmacol., 357 (1998), 1-9].

adenosine A2b receptor = target: T2, adenosine A2b receptor (Homo sapiens, UniProt P29275); assay: Indirect determination of adenosine agonism by gene expression (luciferase reporter), A2b cells; conditions: CHO cells stably transfected with A2b receptor cDNA; 50% of maximum stimulation
T2 construct: expressed in transfected cells; host or cells: CHO (Chinese Hamster Ovary)
T2 sequence (P29275 1-332): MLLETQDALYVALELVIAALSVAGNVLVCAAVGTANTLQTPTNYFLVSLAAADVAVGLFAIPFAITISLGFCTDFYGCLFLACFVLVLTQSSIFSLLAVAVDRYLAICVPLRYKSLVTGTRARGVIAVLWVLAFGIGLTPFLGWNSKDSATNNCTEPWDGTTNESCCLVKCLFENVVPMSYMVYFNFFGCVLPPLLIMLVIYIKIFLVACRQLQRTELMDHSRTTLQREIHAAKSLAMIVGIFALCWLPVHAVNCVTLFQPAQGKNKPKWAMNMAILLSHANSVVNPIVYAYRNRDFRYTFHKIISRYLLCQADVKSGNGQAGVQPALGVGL
From the text: as §1, §2

adenosine A1 receptor = target: T3, adenosine A1 receptor (Homo sapiens, UniProt P30542); assay: Indirect determination of adenosine agonism by gene expression (luciferase reporter), A1 cells; conditions: CHO cells stably transfected with A1 receptor cDNA; 1 μM forskolin; 50% inhibition of luciferase answer
T3 construct: expressed in transfected cells; host or cells: CHO (Chinese Hamster Ovary)
T3 sequence (P30542 1-326): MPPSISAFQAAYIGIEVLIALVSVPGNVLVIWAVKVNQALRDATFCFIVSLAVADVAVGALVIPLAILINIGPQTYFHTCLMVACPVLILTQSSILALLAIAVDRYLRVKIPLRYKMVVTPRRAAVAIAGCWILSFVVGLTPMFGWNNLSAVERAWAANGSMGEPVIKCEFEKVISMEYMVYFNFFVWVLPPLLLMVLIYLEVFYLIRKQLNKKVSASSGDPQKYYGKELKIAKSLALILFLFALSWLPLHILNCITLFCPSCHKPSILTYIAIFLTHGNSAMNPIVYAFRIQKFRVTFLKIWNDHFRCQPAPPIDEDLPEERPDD
From the text: as §1, §2

T1 sequence (P29274 whole entry): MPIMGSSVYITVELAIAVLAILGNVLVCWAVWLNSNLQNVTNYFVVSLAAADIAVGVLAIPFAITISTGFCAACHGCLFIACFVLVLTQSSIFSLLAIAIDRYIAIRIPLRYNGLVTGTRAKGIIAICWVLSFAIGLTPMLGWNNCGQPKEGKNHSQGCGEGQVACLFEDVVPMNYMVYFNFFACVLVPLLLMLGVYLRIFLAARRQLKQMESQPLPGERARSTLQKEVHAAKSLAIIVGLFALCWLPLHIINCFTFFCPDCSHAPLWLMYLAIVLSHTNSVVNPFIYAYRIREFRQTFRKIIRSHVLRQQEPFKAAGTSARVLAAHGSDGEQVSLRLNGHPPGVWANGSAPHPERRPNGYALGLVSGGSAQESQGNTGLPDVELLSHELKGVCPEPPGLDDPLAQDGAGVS

| EC50 (adenosine A2a receptor) | EC50 (adenosine A2b receptor) | EC50 (adenosine A1 receptor) | Structure (SMILES) |
| --- | --- | --- | --- |
| 424 nM | 537 nM | 0.16 nM | N#Cc1c(N)nc(SCc2cccc(C(N)=O)c2)c(C#N)c1-c1ccc(OC2CCOC2)cc1 (stereo not shown) [Example 43] |
| 909 nM | 1010 nM | 0.63 nM | N#Cc1c(N)nc(SCc2cccc(C(N)=O)c2)c(C#N)c1-c1ccc(OC2CCOC2)c(F)c1 (stereo not shown) [Example 58] |
| 144 nM | 720 nM | 0.86 nM | N#Cc1c(N)nc(SCc2ccccn2)c(C#N)c1-c1ccc(O[C@H]2COC[C@@H]2O)cc1 (single isomer, unassigned) [Example 32, ent-trans-2-Amino-4-(4-{[4-hydroxytetrahydrofuran-3-yl]oxy}phenyl)-6-[(pyridin-2-ylmethyl)thio]pyridine-3,5-dicarbonitrile] |
| 69 nM | 234 nM | 0.08 nM | CNC(=O)c1cc(CSc2nc(N)c(C#N)c(-c3ccc(OC4CCOC4)cc3)c2C#N)ccn1 (stereo not shown) [Example 44] |
|  | 1780 nM | 0.53 nM | CC(Sc1nc(N)c(C#N)c(-c2ccc(OC3CCOC3)cc2)c1C#N)c1cccc(C(N)=O)c1 (single isomer, unassigned; ent-3) [Example 66, ent-3-[1-({6-Amino-3,5-dicyano-4-[4-(tetrahydrofuran-3-yloxy)phenyl]pyridin-2-yl}-sulfanyl)ethyl]benzamide] |
| 506 nM |  | 0.14 nM | N#Cc1c(N)nc(SCc2csc(-c3ccc(Cl)cc3)n2)c(C#N)c1-c1ccc(O[C@H]2COC[C@@H]2O)cc1 (racemic) [Example 24, rac-trans-2-Amino-6-({[2-(4-chlorophenyl)-1,3-thiazol-4-yl]methyl}thio)-4-(4-{[4-hydroxytetrahydrofuran-3-yl]oxy}phenyl)pyridine-3,5-dicarbonitrile] |
| 518 nM | 6.9 nM | 168 nM | N#Cc1ccccc1CSc1nc(N)c(C#N)c(-c2ccc(O[C@H]3CCCC[C@@H]3O)cc2)c1C#N (single isomer, unassigned) [Example 23, ent-trans-2-Amino-6-[(2-cyanobenzyl)sulfanyl]-4-(4-{[2-hydroxycyclohexyl]oxy}-phenyl)pyridine-3,5-dicarbonitrile] |
| 261 nM | 177 nM | 0.51 nM | CNC(=O)c1nc(CSc2nc(N)c(C#N)c(-c3ccc(OC4CCOC4)cc3)c2C#N)cs1 (racemic) [Example 51, rac-4-[({6-Amino-3,5-dicyano-4-[4-(tetrahydrofuran-3-yloxy)phenyl]pyridin-2-yl}sulfanyl)methyl]-N-methyl-1,3-thiazole-2-carboxamide] |
|  | 4.3 nM | 265 nM | N#Cc1c(N)nc(SCc2c[nH]cn2)c(C#N)c1-c1ccc(O[C@H]2CCCC[C@@H]2O)cc1 [Example 10] |
| 782 nM |  | 0.22 nM | Cc1oc(-c2ccc(C(=O)O)cc2)nc1CSc1nc(N)c(C#N)c(-c2ccc(OC3CCOC3)cc2)c1C#N (racemic) [Example 49, rac-4-{4-[({6-Amino-3,5-dicyano-4-[4-(tetrahydrofuran-3-yloxy)phenyl]pyridin-2-yl}thio)methyl]-5-methyl-1,3-oxazol-2-yl}benzoic acid] |
|  | 3.9 nM | 104 nM | N#Cc1c(N)nc(SCc2csc(N)n2)c(C#N)c1-c1ccc(O[C@H]2CCCC[C@@H]2O)cc1 [Example 9] |
| 874 nM | 43 nM | 0.56 nM | N#Cc1c(N)nc(SCc2csc(Nc3ccc(F)cc3)n2)c(C#N)c1-c1ccc(O[C@H]2COC[C@@H]2O)cc1 (single isomer, unassigned) [Example 35, ent-trans-2-Amino-6-[({2-[(4-fluorophenyl)amino]-1,3-thiazol-4-yl}methyl)thio]-4-(4-{[4-hydroxytetrahydrofuran-3-yl]oxy}phenyl)pyridine-3,5-dicarbonitrile] |
| 480 nM | 11 nM | 2.9 nM | N#Cc1c(N)nc(SCc2cccnc2)c(C#N)c1-c1ccc(O[C@H]2CCC[C@H]2O)cc1 (racemic) [Example 41, rac-cis-2-Amino-4-(4-{[2-hydroxycyclopentyl]oxy}phenyl)-6-[(pyridin-3-ylmethyl)sulfanyl]pyridine-3,5-dicarbonitrile] |
| 1100 nM | 556 nM | 0.78 nM | N#Cc1c(N)nc(SCc2csc(C(N)=O)n2)c(C#N)c1-c1ccc(OC2CCOC2)cc1 (racemic) [Example 50, rac-4-[({6-Amino-3,5-dicyano-4-[4-(tetrahydrofuran-3-yloxy)phenyl]pyridin-2-yl}sulfanyl)methyl]-1,3-thiazole-2-carboxamide] |
| 1270 nM |  | 0.18 nM | N#Cc1c(SCc2csc(-c3ccc(Cl)cc3)n2)nc(N2CC(O)C2)c(C#N)c1-c1ccc(O[C@H]2COC[C@@H]2O)cc1 (single isomer, unassigned) [Example 29, ent-trans-2-({[2-(4-Chlorophenyl)-1,3-thiazol-4-yl]methyl}sulfanyl)-6-(3-hydroxyazetidin-1-yl)-4-(4-{[4-hydroxytetrahydrofuran-3-yl]oxy}phenyl)pyridine-3,5-dicarbonitrile] |
|  |  | 4.1 nM | COC(=O)c1cccc(C(C)Sc2nc(N)c(C#N)c(-c3ccc(OC4CCOC4)cc3)c2C#N)c1 (single isomer, unassigned; ent-3) [Example 64, Methyl ent-3-[1-({6-amino-3,5-dicyano-4-[4-(tetrahydrofuran-3-yloxy)phenyl]pyridin-2-yl}sulfanyl)ethyl]benzoate] |
| 497 nM | 2.4 nM | 6.9 nM | N#Cc1c(N)nc(SCc2cccnc2)c(C#N)c1-c1ccc(O[C@H]2CCCC[C@@H]2O)cc1 [Example 8] |
| 1920 nM | 16 nM | 56 nM | N#Cc1c(N)nc(SCc2cscn2)c(C#N)c1-c1ccc(O[C@H]2CCCC[C@@H]2O)cc1 [Example 14] |

Reference: patent publication US20110021487A1, “CYCLOALKOXY-SUBSTITUTED 4-PHENYL-3,5-DICYANOPYRIDINES AND THEIR USE” (BAYER SCHERING PHARMA AKTIENGESELLSCHAFT, priority 2008, published 2011)
